In test [1] the target is T1, HIV Env six-helix bundle (6HB) structure (Human immunodeficiency virus type 1 group M subtype B, UniProt P04579).
T1 construct: H9 cells chronically infected with HIV-1 (H9/HIV-1RF); endogenous in cells; host or cells: H9 cells chronically infected with HIV-1 strain RF (Env is made from the virus in the infected cells, not by transfection)
Nature of the test: Six-helix bundle (6HB) assay. Format: cell-based, HIV-1 (strain RF). An outline of the steps:
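Flow cytometry measured binding of a six-helix-bundle-specific polyclonal antibody, detected with PE-labelled secondary at 4 °C for 45 min, on H9/HIV-1 RF chronically infected cells. Compound was given 30 min at 37 °C before 1 μg/mL soluble CD4 induction for 1 h. Inhibition appears as reduced fluorescence.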

The next test relates to HIV-1, NL4-3 strain. Nature of the test: Virus infection assay (virus entry and single-cycle infection). Format: cell-based. To be noted: Human immunodeficiency virus 1, NL43, TZM-b1, read-out: Nl4. An outline of the steps:
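Single-cycle entry/infection read-out: β-galactosidase chemiluminescence measured one day after infection. Compounds were present during a 4 h, 37 °C exposure of TZM-b1 reporter cells to NL4-3 virus at MOI 0.01 plus DEAE-dextran (80 μg/mL final), followed by addition of complete medium.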

The text below walks through data of patent publication US20090215778A1, “Alpha-substituted Arylmethyl Piperazine Pyrazolo [1,5-alpha]Pyrimidine Amide Derivatives” (priority 2007, published 2009).

T1 sequence (P04579 32-519): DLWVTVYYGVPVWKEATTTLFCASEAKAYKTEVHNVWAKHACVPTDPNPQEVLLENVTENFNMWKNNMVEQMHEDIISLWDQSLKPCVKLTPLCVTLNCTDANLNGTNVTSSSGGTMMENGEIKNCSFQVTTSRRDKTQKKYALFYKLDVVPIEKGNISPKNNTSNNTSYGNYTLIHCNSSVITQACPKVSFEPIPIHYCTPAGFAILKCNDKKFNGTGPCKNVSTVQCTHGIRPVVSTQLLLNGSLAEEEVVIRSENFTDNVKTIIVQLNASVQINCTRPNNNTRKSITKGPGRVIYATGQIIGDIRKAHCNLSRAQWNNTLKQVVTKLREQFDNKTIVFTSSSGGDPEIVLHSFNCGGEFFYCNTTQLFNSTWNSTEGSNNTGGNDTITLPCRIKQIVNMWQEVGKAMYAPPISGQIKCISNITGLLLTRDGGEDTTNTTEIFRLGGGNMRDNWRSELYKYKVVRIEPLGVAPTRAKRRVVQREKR
T1 sequence (P04579 520-865): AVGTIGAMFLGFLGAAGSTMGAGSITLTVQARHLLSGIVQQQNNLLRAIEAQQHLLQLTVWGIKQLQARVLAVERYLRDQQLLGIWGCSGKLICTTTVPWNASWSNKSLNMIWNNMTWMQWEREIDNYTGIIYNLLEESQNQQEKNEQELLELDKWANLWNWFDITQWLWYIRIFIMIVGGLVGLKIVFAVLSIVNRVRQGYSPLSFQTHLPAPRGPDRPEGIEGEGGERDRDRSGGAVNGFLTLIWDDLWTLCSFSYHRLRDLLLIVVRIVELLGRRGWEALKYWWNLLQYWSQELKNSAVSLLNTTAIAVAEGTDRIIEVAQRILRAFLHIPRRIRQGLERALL

As to `COc1ccc(-c2nc3c(C(=O)N4CCN(C(CO)c5cccc(Br)c5)C[C@H]4C)cnn3c(C(F)(F)F)c2C)cc1` (stereo partly drawn) [methanone, [(2R)-4-[1-(3-bromophenyl)-2-hydroxyethyl]-2-methyl-1-piperazinyl][5-(4-methoxyphenyl)-6-methyl-7-(trifluoromethyl)pyrazolo[1,5-α]pyrimidin-3-yl]-], the IC50 is < 1000 nM in test [1] and < 1000 nM with HIV-1, NL4-3 strain.
As for `COc1ccc(-c2nc3c(C(=O)N4CCN(C(CO)c5cccc(Cl)c5)C[C@H]4C)cnn3c(C(F)(F)F)c2C)cc1` (stereo partly drawn) [methanone, [(2R)-4-[1-(3-chlorophenyl)-2-hydroxyethyl]-2-methyl-1-piperazinyl][5-(4-methoxyphenyl)-6-methyl-7-(trifluoromethyl)pyrazolo[1,5-α]pyrimidin-3-yl]-], the IC50 is < 1000 nM in test [1] and < 1000 nM in the test with HIV-1, NL4-3 strain.
Consider `COc1ccc(-c2nc3c(C(=O)N4CCN(C(CO)c5cc(F)cc(OC)c5)C[C@H]4C)cnn3c(C(F)(F)F)c2C)cc1` (stereo partly drawn) [methanone, [(2R)-4-[1-(3-fluoro-5-methoxyphenyl)-2-hydroxyethyl]-2-methyl-1-piperazinyl][5-(4-methoxyphenyl)-6-methyl-7-(trifluoromethyl)pyrazolo[1,5-α]pyrimidin-3-yl]-], for which the IC50 was < 1000 nM in test [1] and < 1000 nM in the test on HIV-1, NL4-3 strain.
Consider `COc1ccc(-c2nc3c(C(=O)N4CCN(C(CO)c5cccc(F)c5)C[C@H]4C)cnn3c(C(F)(F)F)c2C)cc1` (stereo partly drawn) [methanone, [(2R)-4-[1-(3-fluorophenyl)-2-hydroxyethyl]-2-methyl-1-piperazinyl][5-(4-methoxyphenyl)-6-methyl-7-(trifluoromethyl)pyrazolo[1,5-α]pyrimidin-3-yl]-], for which the IC50 is < 1000 nM in test [1] and < 1000 nM in the test with HIV-1, NL4-3 strain.
Regarding `COc1ccc(-c2nc3c(C(=O)N4CCN(C(CO)c5ccoc5)C[C@H]4C)cnn3c(C(F)(F)F)c2C)cc1` (stereo partly drawn) [methanone, [(2R)-4-[1-(3-furanyl)-2-hydroxyethyl]-2-methyl-1-piperazinyl][5-(4-methoxyphenyl)-6-methyl-7-(trifluoromethyl)pyrazolo[1,5-α]pyrimidin-3-yl]-], the IC50 in test [1] is < 1000 nM; with HIV-1, NL4-3 strain, < 1000 nM.
In the case of `COc1ccc(-c2nc3c(C(=O)N4CCN(C(CO)c5ccc(F)cc5OC)C[C@H]4C)cnn3c(C(F)(F)F)c2C)cc1` (stereo partly drawn) [methanone, [(2R)-4-[1-(4-fluoro-2-methoxyphenyl)-2-hydroxyethyl]-2-methyl-1-piperazinyl][5-(4-methoxyphenyl)-6-methyl-7-(trifluoromethyl)pyrazolo[1,5-α]pyrimidin-3-yl]-], the IC50 was < 1000 nM in test [1] and < 1000 nM in the test with HIV-1, NL4-3 strain.
Consider `COc1ccc(-c2nc3c(C(=O)N4CCN(C(CO)c5ccc(F)cc5)C[C@H]4C)cnn3c(C(F)(F)F)c2C)cc1` (stereo partly drawn) [methanone, [(2R)-4-[1-(4-fluorophenyl)-2-hydroxyethyl]-2-methyl-1-piperazinyl][5-(4-methoxyphenyl)-6-methyl-7-(trifluoromethyl)pyrazolo[1,5-α]pyrimidin-3-yl]-], for which the IC50 in test [1] was < 1000 nM; in the test with HIV-1, NL4-3 strain, < 1000 nM.
Take `COc1ccc(-c2nc3c(C(=O)N4CCN(C(CO)c5ccc(Cl)s5)C[C@H]4C)cnn3c(C(F)(F)F)c2C)cc1` (stereo partly drawn) [methanone, [(2R)-4-[1-(5-chloro-2-thienyl)-2-hydroxyethyl]-2-methyl-1-piperazinyl][5-(4-methoxyphenyl)-6-methyl-7-(trifluoromethyl)pyrazolo[1,5-α]pyrimidin-3-yl]-]: the IC50 was < 1000 nM in test [1] and < 1000 nM in the test with HIV-1, NL4-3 strain.
On to `COc1ccc(-c2nc3c(C(=O)N4CCN(C(CO)c5cc(F)ccc5OC)C[C@H]4C)cnn3c(C(F)(F)F)c2C)cc1` (stereo partly drawn) [methanone, [(2R)-4-[1-(5-fluoro-2-methoxyphenyl)-2-hydroxyethyl]-2-methyl-1-piperazinyl][5-(4-methoxyphenyl)-6-methyl-7-(trifluoromethyl)pyrazolo[1,5-α]pyrimidin-3-yl]-], for which the IC50 is < 1000 nM in test [1] and < 1000 nM in the test with HIV-1, NL4-3 strain.
For `COc1ccc(-c2nc3c(C(=O)N4CCN(C(CO)c5ccc(Br)nc5)C[C@H]4C)cnn3c(C(F)(F)F)c2C)cc1` (stereo partly drawn) [methanone, [(2R)-4-[1-(6-bromo-3-pyridinyl)-2-hydroxyethyl]-2-methyl-1-piperazinyl][5-(4-methoxyphenyl)-6-methyl-7-(trifluoromethyl)pyrazolo[1,5-α]pyrimidin-3-yl]-], the IC50 in test [1] is < 1000 nM; with HIV-1, NL4-3 strain it was < 1000 nM.
For `CCOc1ccc(C(CO)N2CCN(C(=O)c3cnn4c(C(F)(F)F)c(C)c(-c5ccc(OC)cc5)nc34)[C@H](C)C2)cn1` (stereo partly drawn) [methanone, [(2R)-4-[1-(6-ethoxy-3-pyridinyl)-2-hydroxyethyl]-2-methyl-1-piperazinyl][5-(4-methoxyphenyl)-6-methyl-7-(trifluoromethyl)pyrazolo[1,5-α]pyrimidin-3-yl]-], the IC50 in test [1] was < 1000 nM; with HIV-1, NL4-3 strain, < 1000 nM.
For `COc1ccc(-c2nc3c(C(=O)N4CCN(C(CO)c5cccc(CN)c5)C[C@H]4C)cnn3c(C(F)(F)F)c2C)cc1` (stereo partly drawn) [methanone, [(2R)-4-[1-[3-(aminomethyl)phenyl]-2-hydroxyethyl]-2-methyl-1-piperazinyl][5-(4-methoxyphenyl)-6-methyl-7-(trifluoromethyl)pyrazolo[1,5-α]pyrimidin-3-yl]-], the IC50 was > 10100 nM in test [1] and > 10100 nM with HIV-1, NL4-3 strain.
On to `COc1ccc(-c2nc3c(C(=O)N4CCN(C(CO)c5cccc(N(C)C)c5)C[C@H]4C)cnn3c(C(F)(F)F)c2C)cc1` (stereo partly drawn) [methanone, [(2R)-4-[1-[3-(dimethylamino)phenyl]-2-hydroxyethyl]-2-methyl-1-piperazinyl][5-(4-methoxyphenyl)-6-methyl-7-(trifluoromethyl)pyrazolo[1,5-α]pyrimidin-3-yl]-], for which the IC50 in test [1] was < 1000 nM; in the test with HIV-1, NL4-3 strain it was < 1000 nM.
As for `COc1ccc(-c2nc3c(C(=O)N4CCN(C(CN(C)C)c5ccccc5)C[C@H]4C)cnn3c(C(F)(F)F)c2C)cc1` (stereo partly drawn) [methanone, [(2R)-4-[2-(dimethylamino)-1-phenylethyl]-2-methyl-1-piperazinyl][5-(4-methoxyphenyl)-6-methyl-7-(trifluoromethyl)pyrazolo[1,5-α]pyrimidin-3-yl]-], the IC50 in test [1] is < 1000 nM; in the test on HIV-1, NL4-3 strain it was < 1000 nM.
Regarding `COc1ccc(-c2nc3c(C(=O)N4CCN(C(CO)c5cn[nH]c5)C[C@H]4C)cnn3c(C(F)(F)F)c2C)cc1` (stereo partly drawn) [methanone, [(2R)-4-[2-hydroxy-1-(1H-pyrazol-4-yl)ethyl]-2-methyl-1-piperazinyl][5-(4-methoxyphenyl)-6-methyl-7-(trifluoromethyl)pyrazolo[1,5-α]pyrimidin-3-yl]-], the IC50 lay in the range of 1100 to 10000 nM in test [1] and 1100 to 10000 nM with HIV-1, NL4-3 strain.
As to `COc1ccc(-c2nc3c(C(=O)N4CCN(C(CO)c5cc(F)cc(F)c5F)C[C@H]4C)cnn3c(C(F)(F)F)c2C)cc1` (stereo partly drawn) [methanone, [(2R)-4-[2-hydroxy-1-(2,3,5-trifluorophenyl)ethyl]-2-methyl-1-piperazinyl][5-(4-methoxyphenyl)-6-methyl-7-(trifluoromethyl)pyrazolo[1,5-α]pyrimidin-3-yl]-], the IC50 was < 1000 nM in test [1] and < 1000 nM in the test with HIV-1, NL4-3 strain.
With `COc1ccc(-c2nc3c(C(=O)N4CCN(C(CO)c5c(F)ccc(F)c5F)C[C@H]4C)cnn3c(C(F)(F)F)c2C)cc1` (stereo partly drawn) [methanone, [(2R)-4-[2-hydroxy-1-(2,3,6-trifluorophenyl)ethyl]-2-methyl-1-piperazinyl][5-(4-methoxyphenyl)-6-methyl-7-(trifluoromethyl)pyrazolo[1,5-α]pyrimidin-3-yl]-], the IC50 in test [1] was < 1000 nM; with HIV-1, NL4-3 strain it was < 1000 nM.
With `COc1ccc(-c2nc3c(C(=O)N4CCN(C(CO)c5cccnc5OC)C[C@H]4C)cnn3c(C(F)(F)F)c2C)cc1` (stereo partly drawn) [methanone, [(2R)-4-[2-hydroxy-1-(2-methoxy-3-pyridinyl)ethyl]-2-methyl-1-piperazinyl][5-(4-methoxyphenyl)-6-methyl-7-(trifluoromethyl)pyrazolo[1,5-α]pyrimidin-3-yl]-], the IC50 in test [1] was < 1000 nM; in the test with HIV-1, NL4-3 strain, < 1000 nM.
Consider `COc1ccc(-c2nc3c(C(=O)N4CCN(C(CO)c5cnc(OC)nc5)C[C@H]4C)cnn3c(C(F)(F)F)c2C)cc1` (stereo partly drawn) [methanone, [(2R)-4-[2-hydroxy-1-(2-methoxy-5-pyrimidinyl)ethyl]-2-methyl-1-piperazinyl][5-(4-methoxyphenyl)-6-methyl-7-(trifluoromethyl)pyrazolo[1,5-α]pyrimidin-3-yl]-], for which the IC50 in test [1] was < 1000 nM; with HIV-1, NL4-3 strain it was < 1000 nM.
Regarding `COc1ccc(-c2nc3c(C(=O)N4CCN(C(CO)c5ccccc5OC)C[C@H]4C)cnn3c(C(F)(F)F)c2C)cc1` (stereo partly drawn) [methanone, [(2R)-4-[2-hydroxy-1-(2-methoxyphenyl)ethyl]-2-methyl-1-piperazinyl][5-(4-methoxyphenyl)-6-methyl-7-(trifluoromethyl)pyrazolo[1,5-α]pyrimidin-3-yl]-], the IC50 in test [1] was < 1000 nM; in the test with HIV-1, NL4-3 strain it was < 1000 nM.
Take `COc1ccc(-c2nc3c(C(=O)N4CCN(C(CO)c5cccs5)C[C@H]4C)cnn3c(C(F)(F)F)c2C)cc1` (stereo partly drawn) [methanone, [(2R)-4-[2-hydroxy-1-(2-thienyl)ethyl]-2-methyl-1-piperazinyl][5-(4-methoxyphenyl)-6-methyl-7-(trifluoromethyl)pyrazolo[1,5-α]pyrimidin-3-yl]-]: the IC50 in test [1] was < 1000 nM; in the test on HIV-1, NL4-3 strain, < 1000 nM.
